Assay results: patent US9763445B2, “Safened herbicidal compositions comprising a pyridine carboxylic acid herbicide” (Dow AgroSciences, LLC, priority 2014, dated 2017)

Tests used:
[1] = system: spring wheat (TRZAS); assay: Postemergence greenhouse trial, % visual injury on spring wheat; assay type: in vivo, Triticum aestivum; details: TRZAS
How it was run: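 Postemergence greenhouse spray (187 L/ha, 1.5% v/v Agri-dex in water, acetone/DMSO stocks) on plants at second–third true leaf stage, ~23/22 °C, 14 h photoperiod; herbicides in g ae/ha, safener cloquintocet-mexyl in g ai/ha. Visual injury 0–100% versus solvent-blank controls after 20–22 d; Colby's equation gave expected mixture effects.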

[2] = system: kochia (KCHSC); assay: Postemergence greenhouse trial, % visual injury on kochia; assay type: in vivo, Kochia scoparia; details: KCHSC; for % visual injury, Ob: CQC-m 0 g/ha
How it was run: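 Herbicide rates g ae/ha, safener (cloquintocet-mexyl) rates g ai/ha; spray carrier 1.5% v/v crop oil concentrate, 187 L/ha, 2nd–3rd leaf stage. Rating: visual % injury at 20-22 d.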

[3] = system: common poppy (PAPRH); assay: Postemergence greenhouse trial, % visual injury on common poppy; assay type: in vivo, Papaver rhoeas; details: PAPRH; for % visual injury, Ob: CQC-m 0 g/ha
Method: (§1) Seeds of the desired test plant species were planted in Sun Gro MetroMix® 306 planting mixture, which typically has a pH of 6.0 to 6.8 and an organic matter content of about 30 percent, in plastic pots with a surface area of 103.2 square centimeters (cm^2). When required to ensure good germination and healthy plants, a fungicide treatment and/or other chemical or physical treatment was applied. The plants were grown for 7-36 days (d) in a greenhouse with an approximate 14-hour (h) photoperiod which was maintained at about 23° C. during the day and 22° C. during the night. Nutrients and water were added on a regular basis and supplemental lighting was provided with overhead metal halide 1000-Watt lamps as necessary. The plants were employed for testing when they reached the second or third true leaf stage.
(§2) Weighed amounts of technical material were dissolved in a volume of 97:3 volume per volume (v/v) acetone/dimethyl sulfoxide (DMSO) to stock solutions. […] The concentrated stock solutions were diluted with an aqueous mixture of 1.5% v/v of Agri-dex crop oil concentrate to provide the appropriate application rates. Compound requirements are based upon a 12 milliliter (mL) application volume at a rate of 187 liters per hectare (L/ha). Stocks solutions of the safeners were prepared following the same procedure. Spray solutions of the safeners and experimental compound mixtures were prepared by adding the stock solutions to the appropriate amount of dilution solution to form a 12 mL spray solution in two-way combinations. Formulated compounds were applied to the plant material with an overhead Mandel track sprayer equipped with 8002E nozzles calibrated to deliver 187 L/ha over an application area of 0.503 square meters (m^2) at a spray height of 18 inches (43 centimeters (cm)) above average plant canopy. Control plants were sprayed in the same manner with the solvent blank. All herbicide application (component a) rates are in g ae/ha and all safener (component b) rates are in g ai/ha.
The treated plants and control plants were placed in a greenhouse as described above and watered by sub-irrigation to prevent wash-off of the test compounds. After 20-22 d, the condition of the test plants as compared with that of the control plants was determined visually and scored on a scale of 0 to 100 percent where 0 corresponds to no injury and 100 corresponds to complete kill. Colby's equation was used to determine the herbicidal effects expected from the mixtures. […]

[4] = system: winter rape (BRSNW); assay: Postemergence greenhouse trial, % visual injury on winter rape; assay type: in vivo, Brassica napus; details: BRSNW, CQC-m 0 g/ha
How it was run: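 Plants at second or third true leaf stage, greenhouse-grown (14 h photoperiod, ~23/22° C.), sprayed postemergence with compounds alone or with safener cloquintocet-mexyl in 1.5% v/v Agri-dex crop oil at 187 L/ha. Visual injury scored 0–100% versus solvent-blank controls after 20-22 d; expected mixture effects by Colby's equation.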

[5] = system: thistle (CIRAR); assay: Postemergence greenhouse trial, % visual injury on thistle; assay type: in vivo, Cirsium arvense; details: Cirsium arvense, post-emergence, CIRAR, applied alone, read-out: % visual injury, Ob
Method: as §1, §2
The treated plants and control plants were placed in a greenhouse as described above and watered by sub-irrigation to prevent wash-off of the test compounds. After 20-22 d, the condition of the test plants as compared with that of the control plants was determined visually and scored on a scale of 0 to 100 percent where 0 corresponds to no injury and 100 corresponds to complete kill. The condition of the test plants was compared with that of the control plants as determined visually and scored on a scale of 0 to 100 percent, where 0 corresponds to no injury and 100 corresponds to complete kill. Colby's equation was used to determine the herbicidal effects expected from the mixtures.
The safener cloquintocet-mexyl was combined with compound 1, compound 2, compound 4, compound 5, and compound 6, and applied to corn/maize (ZEAMX) and spring wheat (TRZAS) and the phytotoxicity of the herbicidal compositions was measured. In addition, the efficacy of the herbicidal composition on velvetleaf (ABUTH, Abutilon theophrasti), pigweed (AMARE, Amaranthus retroflexus), winter rape (BRSNW, Brassica napus), lambsquarters (CHEAL, Chenopodium album), thistle (CIRAR, Cirsium arvense), nutsedge (CYPES, Cyperus esculentus), poinsettia (EPHHL, Euphorbia heterophylla), wild buckwheat (POLCO, Polygonum convolvulus), giant foxtail (SETFA, Setaria faberi), and chickweed (STEME, Stellaria media) was evaluated. […]

[6] = compound 8 4.380 + CQC-m 0 g/ha

For COC(=O)c1nc(-c2ccc3cc[nH]c3c2F)c(F)c(N)c1Cl [compound 8], the “% visual injury, observed (Ob)” value [1, 6] was 7%, the “% visual injury, observed (Ob)” value ([1]; compound 8 8.75 + CQC-m 0 g/ha) was 11% and the “% visual injury, observed (Ob)” value ([1]; compound 8 17.5 + CQC-m 0 g/ha) was 35%. The “% visual injury, observed (Ob)” value ([1]; compound 8 35 + CQC-m 0 g/ha) was 48%, the “% visual injury, observed (Ob)” value ([1]; compound 8 70 + CQC-m 0 g/ha) was 60% and the “% visual injury, observed (Ob)” value [2, 6] was 69%. For the same compound, the “% visual injury, observed (Ob)” value ([2]; compound 8 8.75 + CQC-m 0 g/ha) was 77%, the “% visual injury, observed (Ob)” value ([2]; compound 8 17.5 + CQC-m 0 g/ha) was 81% and the “% visual injury, observed (Ob)” value ([2]; compound 8 35 + CQC-m 0 g/ha) was 95%. For the same compound, the “% visual injury, observed (Ob)” value ([2]; compound 8 70 + CQC-m 0 g/ha) was 95%, the “% visual injury, observed (Ob)” value [3, 6] was 97% and the “% visual injury, observed (Ob)” value ([3]; compound 8 8.75 + CQC-m 0 g/ha) was 99%. The “% visual injury, observed (Ob)” value ([3]; compound 8 17.5 + CQC-m 0 g/ha) was 100%, the “% visual injury, observed (Ob)” value ([3]; compound 8 35 + CQC-m 0 g/ha) was 100% and the “% visual injury, observed (Ob)” value ([3]; compound 8 70 + CQC-m 0 g/ha) was 100%.
With COc1c(C(=O)O)nc(-c2ccc3cc[nH]c3c2F)c(F)c1N [compound 13] the “% visual injury, Ob” value ([1]; compound 4.375 g/ha, CQC-m 0 g/ha) was 40%, the “% visual injury, Ob” value ([1]; compound 8.75 g/ha, CQC-m 0 g/ha) was 53% and the “% visual injury, Ob” value ([1]; compound 17.5 g/ha, CQC-m 0 g/ha) was 67%. For the same compound, the “% visual injury, Ob” value ([1]; compound 35 g/ha, CQC-m 0 g/ha) was 80%, the “% visual injury, Ob” value ([1]; compound 70 g/ha, CQC-m 0 g/ha) was 87% and the “% visual injury, Ob” value ([4]; compound 4.375 g/ha) was 100%. The “% visual injury, Ob” value ([4]; compound 8.75 g/ha) was 100%, the “% visual injury, Ob” value ([4]; compound 17.5 g/ha) was 100% and the “% visual injury, Ob” value ([4]; compound 35 g/ha) was 100%. For the same compound, the “% visual injury, Ob” value ([4]; compound 70 g/ha) was 100%, the “% visual injury, Ob” value ([2]; compound 4.375 g/ha) was 55% and the “% visual injury, Ob” value ([2]; compound 8.75 g/ha) was 84%. The “% visual injury, Ob” value ([2]; compound 17.5 g/ha) was 89%, the “% visual injury, Ob” value ([2]; compound 35 g/ha) was 92% and the “% visual injury, Ob” value ([2]; compound 70 g/ha) was 93%. For the same compound, the “% visual injury, Ob” value ([3]; compound 4.375 g/ha) was 90%, the “% visual injury, Ob” value ([3]; compound 8.75 g/ha) was 100% and the “% visual injury, Ob” value ([3]; compound 17.5 g/ha) was 100%. For the same compound, the “% visual injury, Ob” value ([3]; compound 35 g/ha) was 100% and the “% visual injury, Ob” value ([3]; compound 70 g/ha) was 100%.
For Nc1c(F)c(-c2ccc3ccoc3c2)nc(C(=O)O)c1Cl [compound 20], the “% visual injury, Ob” value ([1]; 4.375 g/ha, applied alone) was 0%, the “% visual injury, Ob” value ([1]; 8.75 g/ha, applied alone) was 0% and the “% visual injury, Ob” value ([1]; 17.5 g/ha, applied alone) was 0%. The “% visual injury, Ob” value ([1]; 35 g/ha, applied alone) was 10%, the “% visual injury, Ob” value ([1]; 70 g/ha, applied alone) was 20% and the pest or weed control at 4.375 g/ha ([5]; 4.375 g/ha) was 0%. For the same compound, the pest or weed control at 8.75 g/ha ([5]; 8.75 g/ha) was 10%, the pest or weed control at 17.5 g/ha ([5]; 17.5 g/ha) was 20% and the pest or weed control at 35 g/ha ([5]; 35 g/ha) was 40%. The pest or weed control at 70 g/ha ([5]; 70 g/ha) was 70%, the pest or weed control at 4.375 g/ha ([2]; Bassia scoparia, post-emergence, 4.375 g/ha, applied alone, read-out: % visual injury, Ob) was 70% and the pest or weed control at 8.75 g/ha ([2]; Bassia scoparia, post-emergence, 8.75 g/ha, applied alone, read-out: % visual injury, Ob) was 80%. For the same compound, the pest or weed control at 17.5 g/ha ([2]; Bassia scoparia, post-emergence, 17.5 g/ha, applied alone, read-out: % visual injury, Ob) was 85%, the pest or weed control at 35 g/ha ([2]; Bassia scoparia, post-emergence, 35 g/ha, applied alone, read-out: % visual injury, Ob) was 90% and the pest or weed control at 70 g/ha ([2]; Bassia scoparia, post-emergence, 70 g/ha, applied alone, read-out: % visual injury, Ob) was 95%. The pest or weed control at 4.375 g/ha ([3]; Papaver rhoeas, post-emergence, 4.375 g/ha, applied alone, read-out: % visual injury, Ob) was 85%, the pest or weed control at 8.75 g/ha ([3]; Papaver rhoeas, post-emergence, 8.75 g/ha, applied alone, read-out: % visual injury, Ob) was 85% and the pest or weed control at 17.5 g/ha ([3]; Papaver rhoeas, post-emergence, 17.5 g/ha, applied alone, read-out: % visual injury, Ob) was 95%. For the same compound, the pest or weed control at 35 g/ha ([3]; Papaver rhoeas, post-emergence, 35 g/ha, applied alone, read-out: % visual injury, Ob) was 100% and the pest or weed control at 70 g/ha ([3]; Papaver rhoeas, post-emergence, 70 g/ha, applied alone, read-out: % visual injury, Ob) was 95%.
